Patent US5994342A, “3-(substituted methyl)-4-oxa-1-azabicyclo[3.2.0]heptan-7-one derivatives useful as antitumor agents” (priority 1994, dated 1999)
In brackets after ≈: the same amount, converted by molar mass. Counter-ions that a name gives are not always drawn.

Legend:
[1] = system: KB cells; test: In vitro KB cell cytotoxicity assay (crystal violet); assay type: cell-based; settings: Homo sapiens, 72 h, 3 days culture, read-out: KB Cell Cytotoxicity TD50
Experimental: In Vitro KB Cell Cytotoxicity Assay In vitro KB cell cytoxocity assay was done by modification of the crystal violet assay ([…] et al., Anal Biochem., 159, 109-113 (1986). KB cells were cultivated in Eagles minimum essential medium supplemented with 10% calf serum and incubated at 37° C. in a humidified 5% CO2 atmosphere to prepare a cell stock. Cells were counted using a neubauer hemocytometer and seeded in 96 well plates at 100 μl of 3×10^4 cells/ml and cultured for one day. […] Control wells were identical except that test compound was absent. These were cultured for three days. Then the cells were fixed with addition of 20 μl of 25% glutaraldehyde for 15 minutes, washed with water and dried. Then stained with 100 μl of 0.05% crystal violet for 15 minutes, washed with water and dried. The wells are eluted with […] of 0.05M NaH2 PO4 /ethanol (1:1 v/v) and read at OD540 on a multiscan spectrophotometer. Inhibition value of cell growth was calculated based on optical density using the following equation; [formula] TD50 values were calculated from linear regression ines of the log-logit plot.

[2] = system: Sarcoma 180; test: In vivo antitumor activity against Sarcoma 180; design: species or system male ICR mice; settings: i.p., days 1, 5 and 9
Experimental: In Vivo Antitumor Activity Against Sarcoma 180
The compounds of general formula (I) were tested in vivo against Sarcoma 180 xenografted tumor to mice as illustrated herein after.
Sarcoma 180, 5×10^6 cells were inoculated by S.C. to male ICR mice (6 week old) on day 0. Drugs were administered on days 1, 5 and 9. Mice were killed and tumor weight was measured on day 12 after transplantation. The percentage inhibition of tumor growth was calculated from the mean tumor weight of the treated group compared with that of the control group. Number of mice used in each group was between 6 to 7.

[3] = Mus musculus, Sarcoma-180, ip, 288 h, 12.5 mg/kg/day, tumor s.c., tumor weight day 12, read-out: % Inhibition of tumor growth
[4] = Mus musculus, Sarcoma-180, ip, 288 h, 25 mg/kg/day, tumor s.c., tumor weight day 12, read-out: % Inhibition of tumor growth
[5] = Mus musculus, Sarcoma-180, ip, 288 h, 50 mg/kg/day, tumor s.c., tumor weight day 12, read-out: % Inhibition of tumor growth
[6] = Mus musculus, Sarcoma-180, ip, 288 h, 6.3 mg/kg/day, tumor s.c., tumor weight day 12, read-out: % Inhibition of tumor growth
[7] = Mus musculus, Sarcoma-180, ip, 288 h, 100 mg/kg/day, tumor s.c., tumor weight day 12, read-out: % Inhibition of tumor growth

SMILES | IC50 [1] [µg/mL] | Mortality in 12 days ([2]; 12.5 mg/kg/day) | Mortality in 12 days ([2]; 25 mg/kg/day) | Mortality in 12 days ([2]; 50 mg/kg/day) | inhibition in vivo at 12.5 mg/kg [2, 3] [%] | inhibition in vivo at 25 mg/kg [2, 4] [%] | inhibition in vivo at 50 mg/kg [2, 5] [%] | other results
N[C@H](CCC(=O)OC[C@H]1CN2C(=O)C[C@@H]2O1)C(=O)O (mixture of isomers) [Example 68B, (3RS,5SR)-3-(D-4-Amino-4-carboxybutyryl)oxymethyl-4-oxa-1-azabicyclo[3.2.0]heptan-7-one] | 0.189 | 0/6 | 0/6 | 3/6 | 49.1 | 69.7 | 80.3 | –
N[C@@H](CC(=O)O)C(=O)OC[C@H]1CN2C(=O)C[C@@H]2O1 (mixture of isomers) [Example 66B, (3RS,5SR)-3-(L-2-Amino-3-carboxypropanoyl)oxymethyl-4-oxa-1-azabicyclo[3.2.0]heptan-7-one] | 0.204 | 0/6 | 0/6 | – | 53.2 | 62.9 | – | Mortality in 12 days ([2]; 6.3 mg/kg/day): 0/6; inhibition in vivo at 6.3 mg/kg [2, 6]: 33.7%
N[C@@H](Cc1ccccc1)C(=O)NCC1CN2C(=O)CC2O1 (stereo partly drawn) [Example 63B, (3RS,5RS)-3-N-(L-2-Amino-3-phenylpropanoyl)aminomethyl-4-oxa-1-azabicyclo[3.2.0]heptan-7-one hydrochloride] | 0.573 | – | – | 0/6 | – | – | 50.3 | Mortality in 12 days ([2]; 100 mg/kg/day): 0/6; inhibition in vivo at 100 mg/kg [2, 7]: 57.6%
NCC(=O)NC[C@@H]1CN2C(=O)C[C@H]2O1 (relative stereo) [Example 43, (3RS,5RS)-3-N-(Aminoacetyl)aminomethyl-4-oxa-1-azabicyclo[3.2.0]heptan-7-one hydrochloride] | 0.429 | 0/6 | 0/6 | 0/6 | 57 | 58.9 | 72.1 | Mortality in 12 days ([2]; 6.3 mg/kg/day): 0/6; inhibition in vivo at 6.3 mg/kg [2, 6]: 48.7%
COc1ccc(S(=O)(=O)NC[C@H]2CN3C(=O)C[C@@H]3O2)cc1 (relative stereo) [Example 38, (3RS,5RS)-3-N-(4-Methoxybenzenesulfonyl)aminomethyl-4-oxa-1-azabicyclo[3.2.0]heptan-7-one] | 0.158 (≈ 0.506 µM) | – | 0/6 | 0/6 | – | 26.5 | 55.4 | Mortality in 12 days ([2]; 100 mg/kg/day): 1/6; inhibition in vivo at 100 mg/kg [2, 7]: 72%
O=C(NC[C@@H]1CN2C(=O)C[C@H]2O1)NC[C@@H]1CN2C(=O)C[C@H]2O1 (racemic) [Example 34, N,N'-Di-{[(3RS,5RS)-7-oxo-1-aza-4-oxabicyclo[3.2.0]hept-3-yl]methyl}urea] | 0.151 (≈ 0.487 µM) | 0/6 | 5/6 | – | 76.3 | 92.5 | – | Mortality in 12 days ([2]; 6.25 mg/kg/day): 0/6; inhibition in vivo at 6.25 mg/kg ([2]; Mus musculus, Sarcoma-180, ip, 288 h, 6.25 mg/kg/day, tumor s.c., tumor weight day 12, read-out: % Inhibition of tumor growth): 59.8%
C[C@@H](N)C(=O)NCC1CN2C(=O)CC2O1 (stereo partly drawn) [Example 53B, (3RS,5RS)-3-N-(D-2-Aminopropanoyl)aminomethyl-4-oxa-1-azabicyclo[3.2.0]heptan-7-one hydrochloride] | 0.316 | 0/6 | 1/6 | – | 61.9 | 73.8 | – | Mortality in 12 days ([2]; 6.3 mg/kg/day): 0/6; inhibition in vivo at 6.3 mg/kg [2, 6]: 47.3%
Cl.NCC(=O)NCC(=O)OC[C@H]1CN2C(=O)C[C@@H]2O1 (racemic) [Example 40B, (3RS,5SR)-3-[N-(Aminoacetyl)aminoacetyl]oxymethyl-4-oxa-1-azabicyclo[3.2.0]heptan-7-one hydrochloride] | 0.636 | 0/6 | 0/6 | 0/6 | 48.3 | 54 | 72 | –
C[C@@H](N)C(=O)OC[C@H]1CN2C(=O)C[C@@H]2O1.Cl (mixture of isomers) [Example 51B, (3RS,5SR)-3-(D-2-Aminopropanoyl)oxymethyl-4-oxa-1-azabicyclo[3.2.0]heptan-7-one hydrochloride] | 0.867 | 0/6 | 0/6 | 0/6 | 40.9 | 50.6 | 82.4 | Mortality in 12 days ([2]; 100 mg/kg/day): 5/6; inhibition in vivo at 100 mg/kg [2, 7]: 93.8%
CC(C)[C@H](NC(=O)CN)C(=O)OCC1CN2C(=O)CC2O1 (stereo partly drawn) [Example 55B, (3RS,5SR)-3-[L-2-(N-Aminoacetyl)amino-3-methylbutyryl]oxymethyl-4-oxa-1-azabicyclo[3.2.0]heptan-7-one hydrochloride] | 0.522 | – | 0/6 | 0/6 | – | 47.6 | 74.4 | –
CC(C)[C@H](N)C(=O)OC[C@H]1CN2C(=O)C[C@@H]2O1.Cl (mixture of isomers) [Example 54B, (3RS,5SR)-3-(L-2-Amino-3-methylbutyryl)oxymethyl-4-oxa-1-azabicyclo[3.2.0]heptan-7-one hydrochloride] | 1.9 | – | 0/6 | 0/6 | – | 28.5 | 53.8 | Mortality in 12 days ([2]; 100 mg/kg/day): 0/6; inhibition in vivo at 100 mg/kg [2, 7]: 84.3%
CC(C)[C@H](N)C(=O)NCC(=O)OC[C@H]1CN2C(=O)C[C@@H]2O1.Cl (mixture of isomers) [Example 42B, (3RS,5SR)-3-[N-(L-2-Amino-3-methylbutyryl)aminoacetyl]oxymethyl-4-oxa-1-azabicyclo[3.2.0]heptan-7-one hydrochloride] | 0.388 | 0/6 | 0/6 | 0/6 | 49.9 | 69 | 85.8 | –
CC(=O)NCC(=O)NC[C@@H]1CN2C(=O)C[C@H]2O1 (relative stereo) [Example 44, (3RS,5RS)-3-N-(N-Acetylaminoacetyl)aminomethyl-4-oxa-1-azabicyclo[3.2.0]heptan-7-one] | 0.341 (≈ 1.41 µM) | 0/6 | 4/6 | – | 45.9 | 85.3 | – | –
CC(=O)NC[C@H]1CN2C(=O)C[C@@H]2O1 [Example 2, (3S,5S)-3-(N-Acetylaminomethyl)-4-oxa-1-azabicyclo[3.2.0]heptan-7-one] | 0.77 (≈ 4.18 µM) | – | – | – | – | – | – | Mortality in 12 days ([2]; 10 mg/kg/day): 0/6; Mortality in 12 days ([2]; 20 mg/kg/day): 1/7; inhibition in vivo at 10 mg/kg ([2]; Mus musculus, Sarcoma-180, ip, 288 h, 10 mg/kg/day, tumor s.c., tumor weight day 12, read-out: % Inhibition of tumor growth): 44.7%; inhibition in vivo at 20 mg/kg ([2]; Mus musculus, Sarcoma-180, ip, 288 h, 20 mg/kg/day, tumor s.c., tumor weight day 12, read-out: % Inhibition of tumor growth): 77.5%
CCN(CC)C(=O)NC[C@@H]1CN2C(=O)C[C@H]2O1 (racemic) [Example 33, (3RS,5RS)-3-[N-(N,N-Diethylcarbamyl)]aminomethyl-4-oxa-1-azabicyclo[3.2.0]heptan-7-one] | 0.246 (≈ 1.02 µM) | – | – | – | – | – | – | Mortality in 12 days ([2]; 22.5 mg/kg/day): 0/6; Mortality in 12 days ([2]; 45 mg/kg/day): 0/6; Mortality in 12 days ([2]; 90 mg/kg/day): 0/6; inhibition in vivo at 22.5 mg/kg ([2]; Mus musculus, Sarcoma-180, ip, 288 h, 22.5 mg/kg/day, tumor s.c., tumor weight day 12, read-out: % Inhibition of tumor growth): 46.6%; inhibition in vivo at 45 mg/kg ([2]; Mus musculus, Sarcoma-180, ip, 288 h, 45 mg/kg/day, tumor s.c., tumor weight day 12, read-out: % Inhibition of tumor growth): 66.2%; inhibition in vivo at 90 mg/kg ([2]; Mus musculus, Sarcoma-180, ip, 288 h, 90 mg/kg/day, tumor s.c., tumor weight day 12, read-out: % Inhibition of tumor growth): 74.5%
